According to patent US20140315972A1, “RS)-2-(2-oxo-4-phenylpyrrolidin-1-yl)acetamide compound having modulatory activity with a commensurate effect, pharmaceutical substance (variants) and its application, composition (variants) thereof” (priority 2011, published 2014):
Like-named read-outs stand apart in the source and are kept apart here. Marks after values point to notes of the source that are not given here.

Assays:
Stability during storage = type: physicochemical; conditions: sterile 0.001-3% solutions with cyclodextrin or Tween, ampoules
Method: The resulting compositions are stable. The studies were conducted in accordance with regulatory requirements for determination when stored in natural conditions (in a dry, dark place at a temperature not exceeding 30° C.) and using the standard method of accelerated aging.
The crystalline powder of the Phenotropil substances is not volatile, has white, rarely white to slightly yellowish or slightly cream color, bitter taste (bitter taste that disappears in the mouth rather quickly after dissolution, leaving no unpleasant sensations). In the related products, the bitter taste persists. The Compounds are sparingly soluble in water and saline, moderately soluble in 96.0% alcohol and chloroform. Readily soluble in water and saline under heating, but the solutions are not stable during cooling and storage under normal conditions (not more than 2 hours, which is acceptable for the extemporaneous preparations and research), moderately soluble in 5.0% glucose solution, dissolve well in the presence of solubilizers and emulsifiers. Tween80 and cyclodextrins increase solubility in water, especially Tween80, while cyclodextrins have limitations by concentration. […]

mice [1] = experiment: Average life duration (ALD) of mice; type: in vivo
mice [2] = type: in vivo; conditions: for Mortality: mice
Method: Chemical convulsive agents (bicuculline, corazol, thiosemicarbazide, and picrotoxin) and the maximum electroconvulsive shock (ECS) model in the experiment the different types of seizures with their various implementation mechanisms of pathological conditions. The anticonvulsant activity of Phenotropil after a single dose for all the investigated models manifests in a pronounced positive effect on prevention of mortality in the studied doses of 100, 300, 400, 600 mg/kg. In case of bicuculline-induced seizures, mortality in the control group was 70.0%. Phenotropil (100, 300, 600 mg/kg) was effective in 100% of cases. The metrazole-induced mortality in the control was 60.0% and the positive effect of Phenotropil for mortality vs control was 45-35-0%, depending on the dose, respectively. The thiosemicarbazide-induced mortality was 90.0% in the control group, while when treated with Phenotropil (100, 300, 600 mg/kg), respectively: 60-0-0%. […] In case of MES, mortality in the control group was 100.0%, while in the Phenotropil groups (100, 300, 400 mg/kg) it was 20-0-0%, respectively. […] The anticonvulsant effect of Phenotropil prevents the development of seizures and affects the outcome of convulsive states, preventing mortality in all applied models of seizures in animals. The mechanisms of action of anticonvulsant activity of Phenotropil are probably also commensurate, various and depend on the initial state.

mice [3] = experiment: Toxic effect of ethanol (lateral position, lethal dose); type: in vivo; conditions: 25.0-200 mg/kg
From the text: The antitoxic, sobering and anticraving, activity, as well as the effect of Phenotropil in abstinence was studied on white outbred male rats (weighing 180-220 g) and male mice (weighing 18-24 g) in chronic alcoholism. […] Alcoholized rats after four months of alcoholism and treatment with Phenotropilom voluntarily give up intake of alcohol (anticraving activity) with free choice of water and alcohol (Table 11).

mice [4] = experiment: Cross maze exploratory behavior, HEF and LEF mice; type: in vivo; conditions: i.p. once a day 5 days, Compounds 1 and 4 100 mg/kg, Piracetam 200 mg/kg
[5] = system: mycobacteria (MTB), strain H37Rv; experiment: Mycobacteria (MTB) culture growth in vitro; type: cell-based
Method: The presence of the proper anti-inflammatory effect in Phenotropil formed the basis for investigation of the effect of the drug on more complex pathological agents. The effect of different concentrations of Phenotropil on the mycobacteria (MTB) culture growth in vitro according to research standards (test culture—highly virulent laboratory strain H37Rv) was studied. A wide range of drug concentrations was prepared: 1 series—100, 50, 10 μg/ml, 2 series—from 10 to 0.31 μg/ml, and 3 series—from 2 to 0.031 μg/ml. To prepare the matrix solution, the sterile distilled water was used, and the Shkolnikova medium was used to prepare the said concentrations. To assess the growth and morphological properties of the MTB culture, suspended mycobacteria at appropriate concentrations of Phenotropil solution were inoculated on the Lowenstein-Jensen medium and Shkolnikova medium (4 tubes for each point). After 2 weeks, the presence of growth was determined visually in the Shkolnikova medium and smears from the sediment were prepared. The smears were fixed and stained according to Ziehl-Neelsen method. The number of mycobacteria in smears was counted and, based on the results obtained, the concentration of the drug at which the inhibition of the growth was observed was determined. The number of the MTB colonies and their morphological characteristics were evaluated on the Lowenstein-Jensen medium after four weeks from the time of inoculation. Registration of the results was also carried out four weeks after inoculation.

Structure (SMILES): NC(=O)CN1CC(c2ccccc2)CC1=O (racemic) [Compound 1, (RS)-2-(2-oxo-4-phenylpyrrolidine-1-yl)acetamide]
- storage stability of sterile solutions (Stability during storage): at least 12 months
- ALD increase vs placebo-treated control (mice [1]; 50 mg/kg): 15.3%
- ALD increase vs placebo-treated control (mice [1]; 100 mg/kg): 29.3%
- ALD increase vs placebo-treated control (mice [1]; 200 mg/kg): 12.5%
- ALD increase vs placebo-treated control (mice [1]; 300 mg/kg): 19.6%
- increase in life duration (mice [1]; doses below 50.0 mg/kg): 8.0-10.0%
- effective against mortality, % of cases (mice [2]; bicuculline-induced seizures, 100, 300, 600 mg/kg): 100%
- Mortality (mice [2]; Bicuculline 3.0 mg/kg + 100.0 mg/kg): 0* %
- Mortality (mice [2]; Bicuculline 3.0 mg/kg + 300.0 mg/kg): 0* %
- Mortality (mice [2]; Corazol 110.0 mg/kg + 100.0 mg/kg, listed as Phenotropil): 45%
- Mortality (mice [2]; Corazol 110.0 mg/kg + 300.0 mg/kg, listed as Phenotropil): 35%
- Mortality (mice [2]; Corazol 110.0 mg/kg + 600.0 mg/kg, listed as Phenotropil): 0%
- Mortality (mice [2]; MES + 100.0 mg/kg, listed as Phenotropil, 100 mg/kg): 20%
- Mortality (mice [2]; MES + 300.0 mg/kg, listed as Phenotropil, 300 mg/kg): 0%
- Mortality (mice [2]; MES + 400.0 mg/kg, listed as Phenotropil, 400 mg/kg): 0%
- Mortality (mice [2]; Thiosemicarbazide 18.0 mg/kg + 100.0 mg/kg, listed as Phenotropil): 60%
- Mortality (mice [2]; Thiosemicarbazide 18.0 mg/kg + 300.0 mg/kg, listed as Phenotropil): 0%
- Mortality (mice [2]; Thiosemicarbazide 18.0 mg/kg + 600.0 mg/kg, listed as Phenotropil): 0%
- toxic effect of ethanol (lateral position indicator and lethal dose) (mice [3]): reduced tenfold
- Kt (trigger transmission coefficient) (mice [4]; HEF mice): 3.3 ± 0.3
- Number of compartment explorations (mice [4]; HEF mice): 4.3 ± 0.4 //
- Number of surveillances (mice [4]; HEF mice): 1.3 ± 0.2
- Kt (trigger transmission coefficient) (mice [4]; LEF mice): 3.1 ± 0.35
- Number of compartment explorations (mice [4]; LEF mice): 5.0 ± 0.5 //
- Number of surveillances (mice [4]; LEF mice): 1.6 ± 0.2
- Kt (trigger transmission coefficient) (mice [4]; population as a whole): 3.2 ± 0.45
- Number of compartment explorations (mice [4]; population as a whole): 4.5 ± 0.7 //
- Number of surveillances (mice [4]; population as a whole): 1.4 ± 0.2
- Mean number of MTB colonies ([5]; 0.031 ug/ml): contiguous
- Mean number of MTB colonies ([5]; 0.063 ug/ml): contiguous
- Mean number of MTB colonies ([5]; 0.125 ug/ml): 107
- Mean number of MTB colonies ([5]; 0.250 ug/ml): 97
- Mean number of MTB colonies ([5]; 0.310 ug/ml): 83
- Mean number of MTB colonies ([5]; 0.500 ug/ml): 70
- Mean number of MTB colonies ([5]; 0.630 ug/ml): 65
- Mean number of MTB colonies ([5]; 1.0 ug/ml): 67
- Mean number of MTB colonies ([5]; 1.25 ug/ml): 74
- Mean number of MTB colonies ([5]; 2.0 ug/ml): 79
- Mean number of MTB colonies ([5]; 5.0 ug/ml): 90
- Mean number of MTB colonies ([5]; 10.0 ug/ml): 123
- Mean number of MTB colonies ([5]; 50.0 ug/ml): contiguous
- Mean number of MTB colonies ([5]; 100 ug/ml): contiguous
- number of MTB colonies ([5]; concentrations from 0.25 to 5.0 μg/ml): Less than 100
